Here are results for six molecules from patent publication US20250154109A1, “SODIUM CHANNEL BLOCKING COMPOUNDS, DERIVATIVES THEREOF, AND METHODS OF THEIR USE” (LATIGO BIOTHERAPEUTICS, INC, priority 2022, published 2025).

One data set concerns the target human Nav1.8 (Homo sapiens, UniProt Q9Y5Y9). Briefly: SyncroPatch384PE assay (automated patch clamp). The following applies: human Nav1.8/b3 CHO cells. It is filed as cell-based.
Another data set relates to human plasma protein. Briefly: Human plasma protein binding by equilibrium dialysis. The data set is classed as in vitro ADME. The following applies: for Human Plasma, Unbound %: equilibrium dialysis; for Fold increase vs Comparatror (human plasma unbound): ratio of unbound % sulfoximine / comparator sulfonamide. From the text:
(§1) Table 3 presents the human and rat plasma protein binding data (% unbound) for the compounds of Table 2.
(§2) Comparator compounds A, B, C have been previously reported as inhibitors of Na, 1.8 in WO2020/092667. Comparator D, not previously reported, is offered as an additional sulfonamido example.
On the technique in general: Equilibrium dialysis compares concentrations on both sides of a semipermeable membrane.

For the next data set, the system named is rat plasma protein. As to the kind of experiment: Rat plasma protein binding by equilibrium dialysis. It is filed as in vitro ADME. The following applies: for Rat Plasma, Unbound %: equilibrium dialysis; for Fold increase vs Comparator (rat plasma unbound): ratio of unbound % sulfoximine / comparator sulfonamide.
Description: as §1, §2

Setting [1] is: inactivated state block (P2 measurement), read-out: P2 IC50.
The mark [2] stands for this setting: resting state block (P1 measurement), read-out: P1 IC50.

Molecules are shown by their SMILES. Where two headings read alike, the source gives them in different places. Where only a bound is given, the exact number is not on record here.

Chain of human Nav1.8 (Q9Y5Y9 whole entry): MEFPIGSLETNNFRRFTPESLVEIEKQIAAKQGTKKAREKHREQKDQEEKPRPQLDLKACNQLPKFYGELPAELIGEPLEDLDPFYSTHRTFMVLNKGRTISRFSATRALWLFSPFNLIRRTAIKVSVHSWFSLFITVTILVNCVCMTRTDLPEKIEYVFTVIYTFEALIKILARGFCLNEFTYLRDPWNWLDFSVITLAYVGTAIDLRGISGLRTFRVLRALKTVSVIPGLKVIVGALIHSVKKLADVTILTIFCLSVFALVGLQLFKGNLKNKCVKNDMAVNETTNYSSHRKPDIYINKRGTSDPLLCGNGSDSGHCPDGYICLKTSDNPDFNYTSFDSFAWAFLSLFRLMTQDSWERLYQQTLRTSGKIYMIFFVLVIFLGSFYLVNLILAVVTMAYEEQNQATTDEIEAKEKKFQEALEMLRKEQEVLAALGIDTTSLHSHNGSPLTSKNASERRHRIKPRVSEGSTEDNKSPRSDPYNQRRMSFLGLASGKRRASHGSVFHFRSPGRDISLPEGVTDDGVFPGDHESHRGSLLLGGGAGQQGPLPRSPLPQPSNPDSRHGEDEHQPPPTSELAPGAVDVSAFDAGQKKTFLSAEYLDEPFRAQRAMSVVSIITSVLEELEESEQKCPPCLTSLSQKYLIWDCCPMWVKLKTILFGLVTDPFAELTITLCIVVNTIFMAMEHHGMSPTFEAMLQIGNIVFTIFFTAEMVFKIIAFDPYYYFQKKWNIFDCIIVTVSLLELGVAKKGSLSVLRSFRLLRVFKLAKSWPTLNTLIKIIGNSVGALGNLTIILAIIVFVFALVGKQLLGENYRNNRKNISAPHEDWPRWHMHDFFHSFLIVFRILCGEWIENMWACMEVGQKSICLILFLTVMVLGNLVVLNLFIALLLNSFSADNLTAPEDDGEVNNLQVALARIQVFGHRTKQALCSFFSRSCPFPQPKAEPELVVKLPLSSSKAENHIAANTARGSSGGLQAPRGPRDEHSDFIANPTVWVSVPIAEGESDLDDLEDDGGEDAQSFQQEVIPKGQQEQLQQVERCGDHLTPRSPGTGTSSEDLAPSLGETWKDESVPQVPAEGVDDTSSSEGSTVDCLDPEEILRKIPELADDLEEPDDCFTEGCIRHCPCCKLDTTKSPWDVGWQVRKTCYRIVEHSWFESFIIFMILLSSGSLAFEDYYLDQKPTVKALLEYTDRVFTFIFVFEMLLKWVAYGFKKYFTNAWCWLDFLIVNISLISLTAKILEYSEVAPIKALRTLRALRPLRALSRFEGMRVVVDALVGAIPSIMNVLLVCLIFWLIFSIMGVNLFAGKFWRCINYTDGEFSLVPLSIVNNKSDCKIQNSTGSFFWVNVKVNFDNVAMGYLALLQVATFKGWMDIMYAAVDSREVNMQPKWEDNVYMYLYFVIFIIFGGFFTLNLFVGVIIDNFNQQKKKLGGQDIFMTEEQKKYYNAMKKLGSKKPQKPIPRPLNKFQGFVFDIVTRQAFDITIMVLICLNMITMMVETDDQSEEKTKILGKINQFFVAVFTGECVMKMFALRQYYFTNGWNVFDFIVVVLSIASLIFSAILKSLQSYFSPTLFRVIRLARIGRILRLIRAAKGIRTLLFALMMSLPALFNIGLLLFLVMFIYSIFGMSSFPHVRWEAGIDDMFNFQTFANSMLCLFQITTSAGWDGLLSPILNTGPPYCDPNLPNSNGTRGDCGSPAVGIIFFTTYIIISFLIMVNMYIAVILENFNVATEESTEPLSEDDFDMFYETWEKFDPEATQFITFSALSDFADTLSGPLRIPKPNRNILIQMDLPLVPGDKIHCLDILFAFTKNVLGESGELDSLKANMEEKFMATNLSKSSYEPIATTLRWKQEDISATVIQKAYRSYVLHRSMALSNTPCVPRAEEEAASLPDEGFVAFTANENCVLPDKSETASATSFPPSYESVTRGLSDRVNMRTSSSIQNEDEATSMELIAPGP

Consider `Cc1nc(N2CCCC(F)(F)CC2)c(C(=O)Nc2cccc([S@](C)(=N)=O)c2)cc1C(F)(F)F` [Example 4, (R)-2-(4,4-difluoroazepan-1-yl)-6-methyl-N-(3-(S-methylsulfonimidoyl)phenyl)-5-(trifluoromethyl)nicotinamide], for which the IC50 (as a rule, the concentration that inhibits the measured activity by half) on human Nav1.8 (setting [1]) was at most 5 nM. The IC50 at human Nav1.8 (setting [2]) is at most 5 nM. In the data set on human plasma protein, the “Human Plasma, Unbound %” value turned out to be 0.9% and the “Fold increase vs Comparatror (human plasma unbound)” value is given as 2.9×. Besides, in the data set on rat plasma protein, the “Rat Plasma, Unbound %” value worked out at 1.9% and the “Fold increase vs Comparator (rat plasma unbound)” value was 6.1×.
As for `Cc1nc(N2CCCC(F)(F)CC2)c(C(=O)Nc2cccc(S(C)(=N)=O)c2)cc1Cl` (stereo in doubt) [Example 17, (S)-5-Chloro-2-(4,4-difluoroazepan-1-yl)-6-methyl-N-(3-(S-methylsulfonimidoyl)phenyl)nicotinamide], the IC50 on human Nav1.8 (setting [2]) is at most 5 nM. Besides, in the data set with human plasma protein, the “Human Plasma, Unbound %” value came out at 1.7% and the “Fold increase vs Comparatror (human plasma unbound)” value was found to be 3.2×. In addition, in the data set on rat plasma protein, the “Rat Plasma, Unbound %” value came out at 3.0% and the “Fold increase vs Comparator (rat plasma unbound)” value came to 1.9×.
Regarding `NS(=O)(=O)c1cccc(NC(=O)c2cc(C(F)(F)F)nnc2N2CCCC(F)(F)CC2)c1` [Compound B, reference compound], in the data set with human plasma protein, the “Human Plasma, Unbound %” value was 17.4%. Moreover, the “Rat Plasma, Unbound %” value in the data set on rat plasma protein amounted to 15.8%.
On to `Cc1nc(N2CCCC(F)(F)CC2)c(C(=O)Nc2ccnc(S(C)(=N)=O)c2)cc1C(F)(F)F` (centres unmarked) [Example 101, 2-(4,4-difluoroazepan-1-yl)-6-methyl-N-(2-(S-methylsulfonimidoyl)pyridin-4-yl)-5-(trifluoromethyl)nicotinamide], for which the IC50 on human Nav1.8 (setting [1]) is at most 5 nM. Moreover, the IC50 on human Nav1.8 (setting [2]) is at most 5 nM. Besides, in the data set with human plasma protein, the “Human Plasma, Unbound %” value is 1.8% and the “Fold increase vs Comparatror (human plasma unbound)” value was determined as 7.5×. In the data set with rat plasma protein, the “Rat Plasma, Unbound %” value stood at 3.55% and the “Fold increase vs Comparator (rat plasma unbound)” value turned out to be 6.8×.
For `Cc1nc(N2CCCC(F)(F)CC2)c(C(=O)Nc2cccc(S(N)(=O)=O)c2)cc1C(F)(F)F` [Compound D, reference compound], in the data set on human plasma protein, the “Human Plasma, Unbound %” value came to 0.31%. For the same molecule, in the data set on rat plasma protein, the “Rat Plasma, Unbound %” value is on record as 0.31%.
As for `Cc1nc(N2CCCC(F)(F)CC2)c(C(=O)Nc2ccnc(S(N)(=O)=O)c2)cc1Cl` [Compound C, reference compound], in the data set on human plasma protein, the “Human Plasma, Unbound %” value is recorded as 0.53%. The “Rat Plasma, Unbound %” value with rat plasma protein is 1.62%.
